{"source": "patent US20170290890A1", "about": "“STIMULATION OF OVARIAN FOLLICLE DEVELOPMENT AND OOCYTE MATURATION” (The Board of Trustees of the Leland Stanford Junior …, priority 2014, published 2017)", "key": {"oocytes": {"system": "oocytes", "test": "In vitro fertilization and embryo transfer of oocytes from pretreated grafts", "type": "in vivo, mice", "experimental": "(§1) Using this model, we further treated the hosts with eCG for 2 days to promote the growth of preovulatory follicles, followed by an injection of hCG to promote oocyte maturation. At 12 h after hCG injection, mature oocytes were punctured from preovulatory follicles for in vitro fertilization.\nOvaries from B6D2F1 mice at 10 days of age were treated with 10 μM MHY1485 for 2 days, followed by transplantation into kidney capsules of hosts for 5 days. At day 5 after transplantation, animals were treated with 10 IU equine chorionic gonadotropin (eCG) for 48 h, followed by an injection of 10 IU human chorionic gonadotropin (hCG). Twelve hour later, grafts were collected and oocytes were retrieved in the M2 medium (Cytospring, Mountain View, Calif.). As controls, B6D2F1 mice at day 25 of age were treated with 5 IU eCG for 48 h, followed by 5 IU hCG before oocyte retrieval. For in vitro fertilization, sperm from B6D2F1 male mice were collected into human tubal fluid medium (Cytospring) and pre-incubated for 1 h at 37 C. Oocytes were then fertilized with sperm (2-3×10^5/ml) for 6 h, and inseminated oocytes were transferred into KSOM medium (Cytospring) for development into blastocysts. For embryo transfer, two-cell embryos were transferred into oviducts of pseudopregnant, 8-week-old CD1 nice pre-mated with vasectomized males of the same strain."}, "Ovaries from day 10 mice [1]": {"system": "Ovaries from day 10 mice", "test": "Ovarian explant culture and follicle counting", "type": "cell-based", "conditions": "explant culture 4 days", "experimental": "We treated ovaries from day 10 mice with increasing doses of MHY1485 using an explant culture model.\nOvaries from day 10 mice were placed on culture plate inserts (Millipore) and cultured in 400 μl of DMEM/F12 containing 0.1% BSA, 0.1% Albumax II, insulin-transferrin-selenium, 0.05 mg/ml L-ascorbic acid and penicillin-streptomycin under a membrane insert to cover ovaries with a thin layer of medium. Ovaries were treated with 1-10 μM of MHY1485 and cultured for 4 days with medium change after 2 days of culture. At the end of culture, ovaries were fixed with formalin before weighing. Some ovaries were paraffin-embedded and cut into continuous sections. Sections were stained with hematoxylin and eosin for follicle counting, and only follicles with clearly stained oocyte nucleus were counted to avoid recounting of the same follicle."}, "Ovaries from day 10 mice [2]": {"system": "Ovaries from day 10 mice", "test": "Ovarian tissue grafting (in vitro treatment then allo-transplantation under kidney capsules)", "type": "in vivo", "conditions": "2 days in vitro treatment", "experimental": "as §1\nAt the end of transplantation, grafts were collected for weight determination and histological analysis. For some animals, ovaries from day 10 mice were treated with IVA drugs (PTEN inhibitor: (bpv(hopic) at 30 μM for the first day and an activator for phosphoinositol-3-kinase 740YP at 150 μg/mL for two days) before grafting."}, "mTOR signaling pathway": {"system": "mTOR signaling pathway", "test": "Immunoblotting of mTOR pathway protein phosphorylation in ovaries", "type": "cell-based, mice", "conditions": "day 10 mouse ovaries, 3 h, 10 μM, FIG. 1A", "experimental": "Ovaries from day 10 mice were incubated for 3 h with 10 μM of MHY1485 before immunoblotting analyses. […] Activated mTORC1 complex phosphorylates Thr389 in ribosomal S6 kinase (S6K), thereby activating it to subsequently phosphorylate ribosomal protein S6 (rpS6) and promote ribosome biogenesis. We further monitored S6K1 and rpS6 phosphorylation in ovarian tissues.\nOvaries from mice at day 10 of age were treated with MHY1485 (Millipore, Bedford, Mass.) for 3 h and proteins were extracted using M-PER Mammalian Protein Extraction Reagent (Thermo, Rockford, Ill.) containing a protease inhibitor cocktail (Thermo). Protein concentrations in supernatants were determined by the bicinchoninic acid method (Pierce, Rockford, Ill., USA). Equal amounts of protein lysates were loaded on 4-12% NuPAGE Bis-Tris gels (Invitrogen, Carlsbad, Calif.) in MOPS buffer and transferred to […] pore nitrocellulose membranes (LI-COR, Lincoln, Nebr., USA). First antibodies were from Cell Signaling (Beverly, Mass.) and rabbit secondary antibodies from LI-COR. Images were generated using a LI-COR Odyssey infrared imager."}, "PTEN": {"molecular_target": "PTEN (Homo sapiens, UniProt P60484)", "sequence (P60484 whole entry)": "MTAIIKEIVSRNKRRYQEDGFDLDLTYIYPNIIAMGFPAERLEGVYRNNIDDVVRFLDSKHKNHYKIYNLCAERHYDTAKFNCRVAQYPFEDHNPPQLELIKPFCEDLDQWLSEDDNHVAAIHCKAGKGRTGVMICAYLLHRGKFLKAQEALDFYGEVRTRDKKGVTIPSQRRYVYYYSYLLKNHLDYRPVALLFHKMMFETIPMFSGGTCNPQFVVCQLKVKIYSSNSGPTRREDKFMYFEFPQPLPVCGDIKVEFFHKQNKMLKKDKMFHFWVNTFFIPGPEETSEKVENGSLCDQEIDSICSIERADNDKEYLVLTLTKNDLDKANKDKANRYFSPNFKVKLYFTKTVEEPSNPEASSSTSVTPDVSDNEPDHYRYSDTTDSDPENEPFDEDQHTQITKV", "conditions": "cited from earlier work"}, "PTP": {"system": "PTP", "conditions": "cited from earlier work"}, "[3]": {"conditions": "grafts 5 days with FSH, FIG. 2C"}}}
{"compound": "O=[N+]([O-])c1ccc(Nc2nc(N3CCOCC3)nc(N3CCOCC3)n2)cc1", "note": "[MHY1485, 4,6-Di-4-morpholinyl-N-(4-nitrophenyl)-1,3,5-triazin-2-amine]", "values": [{"measurement": "development of oocytes after in vitro fertilization", "setting": "oocytes; 10 μM 2 days, graft 5 days, eCG then hCG, oocytes fertilized, FIG. 3A", "result": "could develop into blastocysts"}, {"measurement": "outcome of 2-cell embryo transfer into pseudopregnant surrogate mothers", "setting": "oocytes; FIG. 3C", "result": "healthy pups were delivered"}, {"measurement": "early embryonic development vs oocytes from day 25 mice (controls)", "setting": "oocytes; percentage of oocytes developing into each embryonic stage, FIG. 3B", "result": "comparable early embryonic development"}, {"measurement": "ovarian weights", "setting": "Ovaries from day 10 mice [1]; 1-10 μM, FIG. 1B", "result": "dose-dependent increases"}, {"measurement": "follicle growth (histology, follicle counting)", "setting": "Ovaries from day 10 mice [1]; FIG. 1C, 1D", "result": "enhancement of follicle growth from early secondary to the late secondary stage"}, {"measurement": "graft weights", "setting": "Ovaries from day 10 mice [2]; grafted into adult hosts, daily FSH 5 days, FIG. 2A", "result": "increased"}, {"measurement": "antral/preovulatory follicles", "setting": "Ovaries from day 10 mice [2]; grafts 5 days with FSH, FIG. 2B, 2C", "result": "increases in the development of antral/preovulatory follicles"}, {"measurement": "early secondary follicles", "setting": "Ovaries from day 10 mice [2]; [3]", "result": "decrease of early secondary follicles"}, {"measurement": "primary follicles", "setting": "Ovaries from day 10 mice [2]; [3]", "result": "increase of primary follicles"}, {"measurement": "phospho-mTOR levels", "setting": "mTOR signaling pathway", "result": "increased"}, {"measurement": "phosphorylation of S6K1", "setting": "mTOR signaling pathway", "result": "increased"}, {"measurement": "phosphorylation of rpS6", "setting": "mTOR signaling pathway", "result": "increased"}]}
{"compound": "O=C([O-])c1ccccn1.OO.OO.[K+].[K+].[OH-].[V]", "note": "[dipotassium bisperoxo(picolinato)oxovanadate (V)]", "values": [{"measurement": "IC50", "setting": "PTEN", "result": 31, "unit": "nM"}]}
{"compound": "OO.OO.[K+].[OH-].[V].c1cnc2c(c1)ccc1cccnc12", "note": "[potassium bisperoxo (1,10-phenanthroline)oxovanadate (V)]", "values": [{"measurement": "IC50", "setting": "PTEN", "result": 38, "unit": "nM"}]}
{"compound": "dipotassium bisperoxo(5-hydroxypyridine-2-carboxyl)oxovanadate (V)", "values": [{"measurement": "IC50", "setting": "PTEN", "result": 14, "unit": "nM"}]}
{"compound": "monoperoxo(picolinato)oxovanadate(V)", "values": [{"measurement": "IC50", "setting": "PTP", "result": 18000, "unit": "nM"}]}
{"compound": "potassium bisperoxo(bipyridine)oxovanadate (V)", "values": [{"measurement": "IC50", "setting": "PTEN", "result": 18, "unit": "nM"}]}
